Assay results published in patent publication US11267825B2 (AICURIS GMBH & CO. KG, priority 2017, dated 2022).

Key:
HBV = test: Determination of HBV DNA from the supernatants of HepAD38 cells (anti-HBV activity); format: cell-based, hepatitis B virus; conditions: Hepatitis B virus, 144 h; HBV DNA in HepAD38 supernatant at day 6; read-out: Cell Activity (EC50)
Procedure, shortened: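 HepAD38 cells (60,000/well) were treated with half-log compound dilutions in tetracycline-free medium to induce HBV production. On day 6, HBV DNA was purified from filtered supernatant and quantified by real-time PCR against plasmid standards. EC50 values came from non-linear regression of relative copy numbers, typically from three experiments in triplicate.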

HBV core protein = HBV core protein (UniProt P03146); format: biochemical; conditions: read-out: Assembly Activity (IC50); BODIPY-FL labelled core protein, assembly started with NaCl, read after 6 min
Chain of HBV core protein (P03146 whole entry, looked up): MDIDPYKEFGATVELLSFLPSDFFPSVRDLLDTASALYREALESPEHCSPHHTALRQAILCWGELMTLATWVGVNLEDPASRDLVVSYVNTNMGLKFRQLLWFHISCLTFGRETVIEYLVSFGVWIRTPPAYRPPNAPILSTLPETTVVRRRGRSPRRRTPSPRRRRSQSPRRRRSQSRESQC
Procedure, shortened: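 Fluorescence-quenching assembly assay using E. coli-expressed core protein 1–149 plus Cys150, labelled with BODIPY-FL maleimide, at 1.0–2.0 μM in 50 mM HEPES pH 7.5, 0.5% DMSO. Assembly started with NaCl to […]; fluorescence (ex 477/em 525 nm) read after 6 min. EC50 by non-linear regression, 8-point 0.5-log dilutions.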

Compound: Nc1nc2c(s1)CN(C(=O)c1cc3cccc(OC(F)(F)F)c3[nH]1)CC2 [Example 174, 5-(7-(trifluoromethoxy)-1H-indole-2-carbonyl)-4H,5H,6H,7H-[1,3]thiazolo[5,4-c]pyridin-2-amine]
- EC50 (HBV): 1 to 10 µM
- IC50 (HBV core protein): < 5 µM

Compound: O=C(Nc1nc2c(s1)CN(C(=O)c1cc3c(C(F)F)cccc3[nH]1)CC2)C1CCOCC1 [Example 400, N-{5-[4-(difluoromethyl)-1H-indole-2-carbonyl]-4H,5H,6H,7H-[1,3]thiazolo[5,4-c]pyridin-2-yl}oxane-4-carboxamide]
- EC50 (HBV): < 1 µM
- IC50 (HBV core protein): < 5 µM

Compound: COCCC(=O)Nc1nc2c(s1)CN(C(=O)c1cc3ccccc3[nH]1)CC2 [Example 19, N-[5-(1H-indole-2-carbonyl)-4H,5H,6H,7H-[1,3]thiazolo[5,4-c]pyridin-2-yl]-3-methoxypropanamide]
- EC50 (HBV): < 1 µM
- IC50 (HBV core protein): < 5 µM

Compound: O=C(c1cc2ccccc2[nH]1)N1CCc2nc(N[C@H]3CCCC[C@@H]3O)sc2C1 [Example 47, (1S,2S)-2-{[5-(1H-indole-2-carbonyl)-4H,5H,6H,7H-[1,3]thiazolo[5,4-c]pyridin-2-yl]amino}cyclohexan-1-ol]
- EC50 (HBV): < 1 µM
- IC50 (HBV core protein): < 5 µM

Compound: NC(=O)c1nc2c(s1)CN(C(=O)c1cc3ccccc3[nH]1)CC2 [Example 201, 5-(1H-indole-2-carbonyl)-4H,5H,6H,7H-[1,3]thiazolo[5,4-c]pyridine-2-carboxamide]
- EC50 (HBV): 1 to 10 µM
- IC50 (HBV core protein): < 100 µM

Compound: Nc1nc2c(s1)CN(C(=O)c1cc3cc(F)c(Cl)cc3[nH]1)CC2 [Example 277, 5-(6-chloro-5-fluoro-1H-indole-2-carbonyl)-4H,5H,6H,7H-[1,3]thiazolo[5,4-c]pyridin-2-amine]
- EC50 (HBV): < 1 µM
- IC50 (HBV core protein): < 5 µM

Compound: Nc1nc2c(s1)CN(C(=O)c1cc3c(Cl)c(Cl)ccc3[nH]1)CC2 [Example 176, 5-(4,5-dichloro-1H-indole-2-carbonyl)-4H,5H,6H,7H-[1,3]thiazolo[5,4-c]pyridin-2-amine]
- EC50 (HBV): 1 to 10 µM
- IC50 (HBV core protein): 5 to 10 µM

Compound: O=C(c1cc2ccccc2[nH]1)N1CCc2nc(NCC3COCCO3)sc2C1 (stereo not shown) [Example 66, N-[(1,4-dioxan-2-yl)methyl]-5-(1H-indole-2-carbonyl)-4H,5H,6H,7H-[1,3]thiazolo[5,4-c]pyridin-2-amine]
- EC50 (HBV): < 1 µM
- IC50 (HBV core protein): < 5 µM

Compound: O=C(c1cc2c(Cl)cc(F)cc2[nH]1)N1CCc2nc(NCC3(O)CCC3)sc2C1 [Example 313, 1-({[5-(4-chloro-6-fluoro-1H-indole-2-carbonyl)-4H,5H,6H,7H-[1,3]thiazolo[5,4-c]pyridin-2-yl]amino}methyl)cyclobutan-1-ol]
- EC50 (HBV): < 1 µM
- IC50 (HBV core protein): < 5 µM

Compound: CN(C)c1nc2c(s1)CN(C(=O)c1cc3ccccc3[nH]1)CC2 [Example 204, 5-(1H-indole-2-carbonyl)-N,N-dimethyl-4H,5H,6H,7H-[1,3]thiazolo[5,4-c]pyridin-2-amine]
- EC50 (HBV): 1 to 10 µM
- IC50 (HBV core protein): < 100 µM

Compound: CC(=O)N1CCC(C(=O)Nc2nc3c(s2)CN(C(=O)c2cc4ccccc4[nH]2)CC3)CC1 [Example 410, 1-acetyl-N-[5-(1H-indole-2-carbonyl)-4H,5H,6H,7H-[1,3]thiazolo[5,4-c]pyridin-2-yl]piperidine-4-carboxamide]
- EC50 (HBV): < 1 µM
- IC50 (HBV core protein): < 5 µM

Compound: O=C(c1cc2ccccc2[nH]1)N1CCc2nc(CN3CCOCC3)sc2C1 [Example 39, 2-{2-[(morpholin-4-yl)methyl]-4H,5H,6H,7H-[1,3]thiazolo[5,4-c]pyridine-5-carbonyl}-1H-indole]
- EC50 (HBV): < 1 µM
- IC50 (HBV core protein): < 5 µM

Compound: Cc1cc(F)cc2[nH]c(C(=O)N3CCc4nc(NCC5(O)CCC5)sc4C3)cc12 [Example 312, 1-({[5-(6-fluoro-4-methyl-1H-indole-2-carbonyl)-4H,5H,6H,7H-[1,3]thiazolo[5,4-c]pyridin-2-yl]amino}methyl)cyclobutan-1-ol]
- EC50 (HBV): < 1 µM
- IC50 (HBV core protein): < 5 µM

Compound: Nc1nc2c(s1)CN(C(=O)c1cc3c(F)cc(Cl)cc3[nH]1)CC2 [Example 147, 5-(6-chloro-4-fluoro-1H-indole-2-carbonyl)-4H,5H,6H,7H-[1,3]thiazolo[5,4-c]pyridin-2-amine]
- EC50 (HBV): < 1 µM
- IC50 (HBV core protein): < 5 µM

Compound: O=C(c1cc2ccc(Cl)cc2[nH]1)N1CCc2nc(NCC3CCOC3)sc2C1 (stereo not shown) [Example 125, 5-(6-chloro-1H-indole-2-carbonyl)-N-[(oxolan-3-yl)methyl]-4H,5H,6H,7H-[1,3]thiazolo[5,4-c]pyridin-2-amine]
- EC50 (HBV): < 1 µM
- IC50 (HBV core protein): < 5 µM

Compound: CC(O)c1cccc2[nH]c(C(=O)N3CCc4nc(NCC5CCOC5)sc4C3)cc12 (stereo not shown) [Example 244, 1-[2-(2-{[(oxolan-3-yl)methyl]amino}-4H,5H,6H,7H-[1,3]thiazolo[5,4-c]pyridine-5-carbonyl)-1H-indol-4-yl]ethan-1-ol]
- EC50 (HBV): < 1 µM
- IC50 (HBV core protein): < 100 µM

Compound: O=C(c1cc2ccccc2[nH]1)N1CCc2nc(CNCC3(CO)CC3)sc2C1 [Example 41, {1-[({[5-(1H-indole-2-carbonyl)-4H,5H,6H,7H-[1,3]thiazolo[5,4-c]pyridin-2-yl]methyl}amino)methyl]cyclopropyl}methanol]
- EC50 (HBV): 1 to 10 µM
- IC50 (HBV core protein): < 100 µM

Compound: Nc1nc2c(s1)CN(C(=O)c1cc3cc(Cl)ccc3[nH]1)CC2 [Example 155, 5-(5-chloro-1H-indole-2-carbonyl)-4H,5H,6H,7H-[1,3]thiazolo[5,4-c]pyridin-2-amine]
- EC50 (HBV): 1 to 10 µM
- IC50 (HBV core protein): < 5 µM

Compound: O=C(c1cc2ccccc2[nH]1)N1CCc2nc(NC3CC(CO)(CO)C3)sc2C1 [Example 42, [1-(hydroxymethyl)-3-{[5-(1H-indole-2-carbonyl)-4H,5H,6H,7H-[1,3]thiazolo[5,4-c]pyridin-2-yl]amino}cyclobutyl]methanol]
- EC50 (HBV): < 1 µM
- IC50 (HBV core protein): < 5 µM

Compound: O=C(CC(F)(F)F)Nc1nc2c(s1)CN(C(=O)c1cc3ccccc3[nH]1)CC2 [Example 61, 3,3,3-trifluoro-N-[5-(1H-indole-2-carbonyl)-4H,5H,6H,7H-[1,3]thiazolo[5,4-c]pyridin-2-yl]propanamide]
- EC50 (HBV): < 1 µM
- IC50 (HBV core protein): 5 to 10 µM

Compound: CC(C)(CC(=O)Nc1nc2c(s1)CN(C(=O)c1cc3ccccc3[nH]1)CC2)C1CC1 [Example 261, 3-cyclopropyl-N-[5-(1H-indole-2-carbonyl)-4H,5H,6H,7H-[1,3]thiazolo[5,4-c]pyridin-2-yl]-3-methylbutanamide]
- EC50 (HBV): < 1 µM
- IC50 (HBV core protein): < 100 µM

Compound: Nc1nc2c(s1)CN(C(=O)c1cc3c(Cl)ccc(Cl)c3[nH]1)CC2 [Example 177, 5-(4,7-dichloro-1H-indole-2-carbonyl)-4H,5H,6H,7H-[1,3]thiazolo[5,4-c]pyridin-2-amine]
- EC50 (HBV): < 100 µM
- IC50 (HBV core protein): < 100 µM

Compound: O=C(c1cc2ccccc2[nH]1)N1CCc2nc(N[C@H]3COCC[C@@H]3O)sc2C1 (racemic) [Example 339, (±)-3-{[5-(1H-indole-2-carbonyl)-4H,5H,6H,7H-[1,3]thiazolo[5,4-c]pyridin-2-yl]amino}oxan-4-ol]
- EC50 (HBV): < 1 µM
- IC50 (HBV core protein): 5 to 10 µM

Compound: O=C(c1cc2c(F)ccc(F)c2[nH]1)N1CCc2nc(NC3CCOC3)sc2C1 (stereo not shown) [Example 132, 5-(4,7-difluoro-1H-indole-2-carbonyl)-N-(oxolan-3-yl)-4H,5H,6H,7H-[1,3]thiazolo[5,4-c]pyridin-2-amine]
- EC50 (HBV): < 1 µM
- IC50 (HBV core protein): < 5 µM

Compound: Nc1nc2c(s1)CN(C(=O)c1cc3c(Br)c(F)ccc3[nH]1)CC2 [Example 130, 5-(4-bromo-5-fluoro-1H-indole-2-carbonyl)-4H,5H,6H,7H-[1,3]thiazolo[5,4-c]pyridin-2-amine]
- EC50 (HBV): 1 to 10 µM
- IC50 (HBV core protein): < 100 µM

Compound: CC1(C(=O)Nc2nc3c(s2)CN(C(=O)c2cc4ccccc4[nH]2)CC3)CC1 [Example 274, N-[5-(1H-indole-2-carbonyl)-4H,5H,6H,7H-[1,3]thiazolo[5,4-c]pyridin-2-yl]-1-methylcyclopropane-1-carboxamide]
- EC50 (HBV): < 1 µM
- IC50 (HBV core protein): < 5 µM

Compound: CN(CC1CCOC1)c1nc2c(s1)CN(C(=O)c1cc3ccccc3[nH]1)CC2 (stereo not shown) [Example 110, 5-(1H-indole-2-carbonyl)-N-methyl-N-[(oxolan-3-yl)methyl]-4H,5H,6H,7H-[1,3]thiazolo[5,4-c]pyridin-2-amine]
- EC50 (HBV): 1 to 10 µM
- IC50 (HBV core protein): < 100 µM

Compound: CC(C)(CO)CNc1nc2c(s1)CN(C(=O)c1cc3ccccc3[nH]1)CC2 [Example 221, 3-{[5-(1H-indole-2-carbonyl)-4H,5H,6H,7H-[1,3]thiazolo[5,4-c]pyridin-2-yl]amino}-2,2-dimethylpropan-1-ol]
- EC50 (HBV): < 1 µM
- IC50 (HBV core protein): < 5 µM

Compound: O=C(c1cc2c(Cl)ccc(F)c2[nH]1)N1CCc2nc(NCC3CCOC3)sc2C1 (stereo not shown) [Example 116, 5-(4-chloro-7-fluoro-1H-indole-2-carbonyl)-N-[(oxolan-3-yl)methyl]-4H,5H,6H,7H-[1,3]thiazolo[5,4-c]pyridin-2-amine]
- EC50 (HBV): < 1 µM
- IC50 (HBV core protein): 5 to 10 µM

Compound: O=C(c1cc2ccccc2[nH]1)N1CCc2nc(NCC3(O)CCC3)sc2C1 [Example 46, 1-({[5-(1H-indole-2-carbonyl)-4H,5H,6H,7H-[1,3]thiazolo[5,4-c]pyridin-2-yl]amino}methyl)cyclobutan-1-ol]
- EC50 (HBV): < 1 µM
- IC50 (HBV core protein): < 5 µM

Compound: Cc1cccc2[nH]c(C(=O)N3CCc4nc(NCC5CCOC5)sc4C3)cc12 (stereo not shown) [Example 124, 5-(4-methyl-1H-indole-2-carbonyl)-N-[(oxolan-3-yl)methyl]-4H,5H,6H,7H-[1,3]thiazolo[5,4-c]pyridin-2-amine]
- EC50 (HBV): < 1 µM
- IC50 (HBV core protein): < 5 µM

Compound: CC(O)CNc1nc2c(s1)CN(C(=O)c1cc3ccccc3[nH]1)CC2 (stereo in doubt) [Example 131, (2S)-1-{[5-(1H-indole-2-carbonyl)-4H,5H,6H,7H-[1,3]thiazolo[5,4-c]pyridin-2-yl]amino}propan-2-ol]
- EC50 (HBV): < 1 µM
- IC50 (HBV core protein): < 5 µM
